# Reference: patent US20240391960A1, “EXTRACELLULAR CYCLOPHILIN INHIBITOR AND USE THEREOF” (PEKING UNIVERSITY SHENZHEN GRADUATE SCHOOL, priority 2021, published 2024)
# Assays:
# albumin (BSA) = albumin (BSA) (Bos taurus, UniProt P02769); assay: Albumin cysteine reaction site, bottom-up peptide LC-ESI-MS; conditions: pancreatin digest, peptide GLVLIAFSQYLQQCPFDEHVK
# Protocol: The complex of Example 4 was denatured with urea, and the diluted protein sample was added in the proportion of pancreatin:protein=1:50. After enzymatic hydrolysis at 37° C. for 18 h, the peptide sample was desalted using Pierce® Spin Columns (Thermo Fisher) desalting column. The eluate was eluted with 70% acetonitrile, lyophilized, dissolved with 0.1% formic acid in water, and the peptide was analyzed by LC-ESI-MS, and the modified sites were analyzed using BioPharma Finder software (Thermo Fisher).
# Jurkat cells = assay: High resolution mass spectrometry determination of molecular penetration in Jurkat cells; assay type: in vitro ADME; conditions: 5 μM compound, 37° C., 2 hours
# Description: For direct detection of molecular penetration, intracellular compound concentrations were quantified by an external standard method using a QE-Focus mass spectrometer.
# The m/z signal of the corresponding molecule is selected to perform peak extraction on the chromatogram to obtain an ion chromatogram (EIC) corresponding to the extraction of the molecule, and then the concentration of the extract is quantified using the peak area under the curve of the EIC of the cell extract.
# intracellular CypA = target: T1, intracellular CypA (Homo sapiens, UniProt P62937); assay: Fluorescence competition flow cytometry with CsA-FITC probe in Jurkat cells; assay type: cell-based; conditions: CsA-FITC labelled Jurkat cells
# T1 construct: endogenous in cells; host or cells: Jurkat
# CypA [1] = target: T2, CypA (Homo sapiens, UniProt P62937); assay: Competitive fluorescence polarization binding assay
# Description: Fluorescence polarization (FP) is a widely used technique for measuring ligand-receptor binding in solution systems. Free fluorescent probes in the free state rotate rapidly in the system and the emitted fluorescence is mostly depolarized light. Once the probe binds to a larger molecule, the rotation of the molecule is restricted, and the emission of polarized light increases.
# CypA [2] = target: T2, CypA; assay: PPIase activity, chymotrypsin hydrolysis of N-Succinyl-Ala-Ala-Pro-Phe p-nitroanilide; assay type: biochemical; conditions: 50 nM CypA, 250 μg/mL chymotrypsin, 80 μM substrate peptide; read-out: IC50, CypA enzymatic activity
# Protocol: The effect of inhibitors on CypA enzyme activity was determined using the chymotrypsin hydrolysis of N-Succinyl-Ala-Ala-Pro-Phe p-nitroanilide substrate peptide. […] When catalyzed by proline cis-trans isomerase, its configuration changes from cis to trans, which can be specifically cleaved by chymotrypsin and release p-nitroanilide with maximum absorption around 390 nm. Thus, the stronger the CypA enzyme activity is, the faster the substrate is degraded, and the faster the absorbance at 390 nm increases. Kinetic monitoring was initiated by the addition of 250 μg/mL chymotrypsin and finally, 80 μM of an ultra-dry substrate peptide solution (470 mM LiCL in trifluoroethanol) using a microplate reader with an autosampler after binding to different concentrations of inhibitors using 50 nM CypA.
# NFAT = NFAT dephosphorylation in PMA/ionomycin activated Jurkat cells, Western blot; assay type: cell-based; conditions: 1.5 h preincubation, 25 nM PMA and 1 μg/mL ionomycin 2 h
# Description: Based on this, the present inventors investigated the effect of molecules on NFAT signal transduction during JurkatT cell activation by ionomycin and PMA. […] After the collection of cells, the dephosphorylation level of NFAT protein was detected by extraction, electrophoresis, transfer printing, and NFAT antibody. Dephosphorylation of NFAT results in two bands, phosphorylated and nonphosphorylated.
# IL-2 = IL-2 secretion of activated Jurkat cells, ELISA; assay type: cell-based; conditions: 4MCsA up to 5 μM, 24 h PMA and ionomycin stimulation
# Protocol: Meanwhile, the present invention further examined the secretion of IL-2 protein downstream of T-cell activation in which NFAT was involved, and the IL-2 protein content in the culture medium was measured using the ELISA method after 24 h of PMA and ionomycin stimulation.
# IL-8 = assay: CypA-stimulated IL-8 transcription in THP1 cells, RT-PCR; assay type: cell-based; conditions: CypA 12 hours, medium with 0.1% BSA
# THP-1 cells = assay: Transwell CypA-induced THP-1 cell migration; assay type: cell-based; conditions: 200 ng/ml CypA, 1 hour
# [3] = test system: HEK293 human kidney cells; assay: MTT cytotoxicity; assay type: cell-based; conditions: HEK293, medium with 4% BSA, 30 hours, up to 50 μM
# CypA [4] = assay: Serum CypA content in T2DM model mice, ELISA; assay type: in vivo; conditions: DB diabetic mice, tail vein weekly for 3 weeks
# Description: This example examined the effect of drugs on serum CypA contents in mice using db/db genetically engineered mice deficient in leptin receptors (DB mice) as a T2DM model (C57 mice as a healthy control group).
# [5] = Fasting blood glucose and glycated hemoglobin in T2DM mouse models; assay type: in vivo, mice
# Description: To effectively evaluate the effect of the drug on T2DM, this example selected DB mice and high fat diet-induced obese mouse models (HFD mice) as two different predisposing mouse models of type 2 diabetes as subjects.
# [6] = Glucose tolerance test (GTT); assay type: in vivo, mice
# insulin = assay: Basal and glucose-stimulated insulin secretion, ELISA; assay type: in vivo, mice
# [7] = Insulin tolerance test (ITT); assay type: in vivo, mice
# Protocol: Insulin signaling response was further measured by performing an insulin sensitivity test (insulin tolerance test, ITT) on each of the two mice in Example 15. After the mice were fasted for 6 hours, insulin (2 U/kg for DB mice and 1 U/kg for HFD mice) was injected intraperitoneally, and then the blood glucose contents were measured at different time points.
# TNF-a, IL-1β = assay: Serum inflammatory factors in DB mice, ELISA; assay type: in vivo; conditions: 42 days of administration
# [8] = test system: CT26-LUC mouse colon cancer cells; assay: CT26-LUC mouse colon cancer tumor model; assay type: in vivo; conditions: Balb/C mice, subcutaneous CT26-LUC, 5 mg/kg, three weeks
# Protocol: This example establishes a mouse tumor model to reflect the effect of the drug by measuring the size of the tumor.
# CT26-LUC mouse colon cancer cells were inoculated subcutaneously on the dorsal side of Balb/C mice in an amount of […]. Six days later, the tumor size was about 100 mm^3. The simultaneous administration was measured with vernier caliper and the administration dose of 4MCsA was 5 mg/kg. The tumors were measured once every two days and the tumor size was counted. The experiment was terminated after three weeks.
# CD8T cells = assay: CD8 T cell infiltration in the tumor microenvironment, frozen section immunofluorescence; assay type: in vivo, mice; conditions: tumor frozen sections
# Protocol: The thickness of the frozen section is required to be 4-8 μm, place it at room temperature for 30 min after taking it out from −80° C., fix it in acetone at 4° C. for 10 min, wash with PBS, 5 min×3; block with 5-10% normal goat serum (diluted in PBS) and incubate at room temperature for 10 minutes. […] PBS flush, 5 min×3 times; add the appropriately diluted biotin-labeled secondary antibody (diluted in 1% BSA-PBS) dropwise, and incubate at 37° C. for 90-120 minutes; or second-generation horseradish enzyme-labeled streptavidin working solution, incubate at 37° C. or room temperature for 10-30 minutes; the PBS was washed 5 minutes×3 times, mounted and photographed using an inverted fluorescence microscope. Finally, ImageJ was used for statistical analysis.
# [9] = Aortic lesion extent in high-fat diet induced atherosclerotic mice, oil red O; assay type: in vivo, ApoE gene-deficient C57BL/6J mice; conditions: ApoE-/- mice, Western diet, 5 mg/kg/week tail vein, 9 weeks
# Protocol: Five-week-old ApoE gene-deficient C57BL/6J mice were randomly divided into two groups and fed with the Western diet for high-fat induction. From the 7th week, the experimental group received 4MCsA at a dose of 5 mg/kg/week via tail vein injection for 9 weeks. At the end of the experiment, the experimental animals were euthanized, dissected, and perfused with 10 mL of tissue fixative (4% paraformaldehyde) and 10 mL of […] from the right atrial appendage. The aorta was isolated intact under stereoscope and extravascular adherent adipose tissue was dissected with fat forceps. The isolated aorta was stained with oil red O, photographed, and recorded, and the lesion area of the aortic arch in the experimental group and the control group was counted with ImageJ, and the difference was statistically significant.
# CRP = assay: Serum CRP in high-fat diet-induced atherosclerotic mice; assay type: in vivo; conditions: ApoE-/- mice, 5 mg/kg weekly, 9 weeks
# Protocol: After successful modeling of atherosclerotic mice, the effect of the compounds on the development of cardiovascular disease was evaluated by assessing the risk of developing cardiovascular disease in the body by measuring CRP levels in the serum of experimental mice given weekly tail vein injections of 5 mg/kg 4MCsA for 9 weeks as described in Example 23.
# [10] = Serum blood lipid markers in high-fat diet-induced atherosclerotic mice; assay type: in vivo; conditions: ApoE-/- mice, 5 mg/kg once a week, 9 weeks
# Protocol: A mouse model of atherosclerosis induced by a high-fat diet was established as described in Example 23 and administered in groups, 4MCsA at 5 mg/kg or placebo via tail vein once a week for 9 consecutive weeks, after which the mice were euthanized and serum was collected for routine lipid profile testing.
# [11] = Serum ALT, AST in high-fat diet-induced atherosclerotic mice; assay type: in vivo; conditions: ApoE-/- mice, 5 mg/kg once a week, 9 weeks
# Description: Atherosclerosis model in mice was induced and administered as described in Example 25. At the end of the experimental period, the mice were euthanized and serum was taken for determination of ALT and AST contents.
# [12] = Hepatorenal toxicity evaluation, serum ALT, AST, creatinine, urea; conditions: 50 days
# [13] = DB and HFD mice, once weekly tail vein, compared to CsA
# [14] = HFD mice, within 36 hours on day 23 of dosing
# [15] = HFD mice, within 60 hours on day 17 of dosing
# T2 sequence (P62937 whole entry, species assumed): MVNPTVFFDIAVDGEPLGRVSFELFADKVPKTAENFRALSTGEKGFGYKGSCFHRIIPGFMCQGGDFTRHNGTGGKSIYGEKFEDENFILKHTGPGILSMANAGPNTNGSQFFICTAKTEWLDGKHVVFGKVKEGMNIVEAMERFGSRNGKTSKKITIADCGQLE
# T1 sequence (P62937 whole entry): as the sequence (P62937 whole entry, species assumed) above
# Chain of albumin (BSA) (P02769 25-607): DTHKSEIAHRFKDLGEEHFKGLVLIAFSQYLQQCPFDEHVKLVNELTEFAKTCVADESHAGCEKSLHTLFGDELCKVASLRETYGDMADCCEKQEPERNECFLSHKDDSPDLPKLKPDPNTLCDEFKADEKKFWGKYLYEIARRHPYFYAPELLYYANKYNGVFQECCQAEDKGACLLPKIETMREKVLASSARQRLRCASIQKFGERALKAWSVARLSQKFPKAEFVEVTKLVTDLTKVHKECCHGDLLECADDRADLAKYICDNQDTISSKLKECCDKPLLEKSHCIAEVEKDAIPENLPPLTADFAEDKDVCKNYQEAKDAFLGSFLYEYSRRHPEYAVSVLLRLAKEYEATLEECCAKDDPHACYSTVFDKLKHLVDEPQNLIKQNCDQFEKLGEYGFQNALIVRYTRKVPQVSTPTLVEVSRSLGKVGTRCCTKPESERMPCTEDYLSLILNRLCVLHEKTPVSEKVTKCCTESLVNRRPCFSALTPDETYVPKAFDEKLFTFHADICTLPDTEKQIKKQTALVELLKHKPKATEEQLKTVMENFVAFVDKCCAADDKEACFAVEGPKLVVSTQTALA
compound,measurement,setting,value
CC=CCC(C)C(O)C1C(=O)NC(CC)C(=O)N(C)CC(=O)N(C)C(CCCCNC(=O)CCCCCN2C(=O)C=CC2=O)C(=O)NC(C(C)C)C(=O)N(C)C(CC(C)C)C(=O)NC(C)C(=O)NC(C)C(=O)N(C)C(CC(C)C)C(=O)N(C)C(CC(C)C)C(=O)N(C)C(C(C)C)C(=O)N1C (stereo not shown) [Compound 4MCsA],modification site on BSA,albumin (BSA),Cys34
same,Intracellular conc. (μM),Jurkat cells,not detected
same,effect on the intracellular fluorescence signal,intracellular CypA,very little effect
same,Ki,"CypA [1]; 50 nM CypA, 20 nM CsA-FITC probe",198 ± 17 nM
same,IC50,CypA [2],22.6 ± 4.3 nM
same,NFAT dephosphorylation induced by PMA and ionomycin,NFAT,no significant effect
same,secretion of IL-2,IL-2,hardly affected
same,eCypA-increased transcription level of mRNA of IL-8,IL-8,significantly inhibited
same,migration activity promoted by CypA,THP-1 cells,significantly abolished
same,"cytotoxicity, cell survival by MTT",[3],little cytotoxicity
same,blood CypA contents,CypA [4],decreased
same,fasting blood glucose,[5]; [13],significantly decreased
same,glycated hemoglobin contents,[5]; [13],decreased
same,fasting blood glucose vs C57 ctrl,"[5]; normal C57 mice, 5 mg/kg/week, after 5 weeks",comparable to the normal group
same,GTT AUC,[6]; C57 healthy mice,less than that in CsA group
same,GTT area under the curve (AUC),"[6]; DB mice, 5 mg/kg group vs Ctrl",significantly reduced
same,glucose tolerance status (GTT),"[6]; DB mice, 5 mg/kg, after 5 weeks, glucose 1 g/kg i.p.",significantly improved
same,GTT,[6]; [14],significant improvement
same,GTT AUC,[6]; [14],significant decrease
same,GTT,[6]; [15],remained significantly improved
same,GTT AUC,[6]; [15],significantly reducing
same,basal level of insulin,insulin; DB mice,little effect
same,glucose-stimulated insulin secretion vs DB ctrl,insulin; DB mice,no significant difference
same,glucose-stimulated insulin secretion vs C57 ctrl,insulin; healthy C57 mice,increased
same,dose dependence of the effect on ITT,"[7]; DB mice, 1 and 5 mg/kg/week",dose-dependent
same,insulin sensitivity (ITT),"[7]; DB mice, insulin 2 U/kg i.p.",significantly improved
same,ITT AUC compared with CsA,[7]; HFD mice,lower AUC
same,insulin resistance caused by obesity (ITT),"[7]; HFD mice, insulin 1 U/kg i.p.",attenuated insulin resistance
same,level of IL-1β,"TNF-a, IL-1β",significantly reduce
same,level of TNF-a,"TNF-a, IL-1β",significantly reduce
same,tumor size,[8],certain antitumor effect
same,infiltration of CD8T cells in the tumor microenvironment,CD8T cells,promote the infiltration
same,lesion area of the aortic arch vs control group,[9],significantly reduced
same,CRP content in the serum,CRP,very significantly reduce
same,HDL-C content,[10],increased
same,TC content,[10],no significant effect
same,TC/HDL-C,[10],significantly reduce
same,TG content,[10],no significant effect
same,serum LDL-C content,[10],significantly decreased
same,activity of ALT in the serum,[11],no significant change
same,activity of AST in the serum,[11],no significant change
same,ALT level,[12]; C57 healthy mice,remained close to those of healthy controls
same,AST level,[12]; C57 healthy mice,remained close to those of healthy controls
same,urea level,[12]; C57 healthy mice,remained close to those of healthy controls
same,creatinine level between groups,[12]; DB mice,no difference
same,"hepatorenal toxicity (ALT, AST)",[12]; DB mice,not further enhanced
same,urea level between groups,[12]; DB mice,no difference
"CCC1NC(=O)C(C(O)C(C)CC=Cc2ccc(C(=O)NCCOCCNC(=S)Nc3ccc(-c4c5ccc(=O)cc-5oc5cc(O)ccc45)c(C(=O)O)c3)cc2)N(C)C(=O)C(C(C)C)N(C)C(=O)C(CC(C)C)N(C)C(=O)C(CC(C)C)N(C)C(=O)C(C)NC(=O)C(C)NC(=O)C(CC(C)C)N(C)C(=O)C(C(C)C)NC(=O)C(CC(C)C)N(C)C(=O)CN(C)C1=O (stereo not shown) [CsA-FITC, reference compound]",proportion of fluorescent cells,intracellular CypA,95.30%
same,Kd,"CypA [1]; fluorescence polarization, probe itself, read-out: binding constant Kd with CypA",14.8 ± 0.7 nM
